Measured values as given in patent US11077209B2, “Use of cerebral nitric oxide donors in the assessment of the extent of brain dysfunction following injury” (OXFORD UNIVERSITY INNOVATION LIMITED, priority 2016, dated 2021).
Read-outs that look alike come from different tables or passages of the source.

Columns and labels:
[1] = tested on: patients after severe aneurysmal SAH (WFNS grade 3, 4 or 5); details: for percentage change in ADR, median: (during infusion-baseline)/baseline x100; for mean percentage change from baseline ADR over time, FIG. 3: after commencement of the nitrite infusion
Text: Patients aged 18-80 years admitted to the Neurosciences Intensive Care Unit (NICU) at the John Radcliffe Hospital, Oxford after having suffered severe aneurysmal SAH (WFNS grade 3, 4 or 5 at time of presentation) were eligible for inclusion in the study. There were no specific selection criteria apart from grade of SAH, and the absence of any exclusion criteria (see below).
Following definitive endovascular aneurysm treatment, each patient underwent a two hour period of continuous EEG monitoring (Porti 7 system, Twente Medical Systems International) on one occasion as soon as was practically possible after endovascular securing of the aneurysm.
(§1) Sedative drug levels, muscle relaxants and vasopressors were documented and changes in infusion rates were minimised for the duration of the recording.
We used a simplified EEG montage that aimed for compromise between stable maintenance of recording and full coverage of all vascular territories. Consequently, 7-13 unipolar EEG electrodes (depending on the presence of external ventricular drains and intracranial pressure (ICP) monitors) at the following positions defined according to the international 10-20 system: Cz, Fz, Pz, Fp1, Fp2, F3, F4, P3, P4, T3, T4, O1, O2. EEG data were digitized at a sampling rate of 2048 Hz, with a high pass filter of 0.5 Hz and a low pass filter of 30 Hz.
Each surviving patient was followed up at three to six months post-rupture. Telephone follow up was performed for patients who were unable to attend hospital due to their clinical status. Primary outcome was measured by the presence or absence of delayed ischemia. Long term outcome was assessed by modified Rankin scale at 3 months, via structured standardised questions in person or by telephone. The modified Rankin scale, is a commonly used grading system that measures the degree of disability or dependence in the daily activities of people who have suffered a neurological insult. Good outcome is defined as a score of 0-2, whereas poor outcome is defined as ≥3.
Inc.) code and the EEGLAB v13.4.3b analysis toolbox. Datasets were re-referenced to the average of bilateral mastoid reference electrodes and band pass filtered from 0.5 to 15 Hz using a linear finite impulse response (FIR) filter. Each EEG recording was visually inspected and artefacts were manually removed. Channels showing evidence of excessive amounts of noise were removed from each recording.
Spectral analysis was carried out using FieldTrip, a MATLAB software toolbox for EEG analysis. Data was windowed into 30-second segments that overlapped by 50%. Time-frequency analysis was performed using a multi-taper spectral estimation using discrete prolate spheroidal (Slepian) sequences with 14 tapers, and fast Fourier transform algorithm for each electrode channel. Five 60-second epochs were selected randomly from the first (baseline) and last thirty minutes of the recording (during infusion). The epochs were separated by at least 60 seconds to avoid autocorrelation. The corresponding frequency distribution in each epoch was identified, which enabled determination of power values in the following frequency bands: delta 1-4 Hz, alpha 8-12 Hz and total low frequency power 1-15 Hz.
Statistical analysis was carried out using R and the analysis package nlme. We applied a two level linear mixed effects multilevel model to the data to allow for within patient correlation due to repeated measures on each patient over time. […] A qqnorm plot was used to identify any outliers and these were subsequently eliminated from the model. Goodness of fit was assessed via Shapiro-Wilk normality tests on fixed and random effect residuals, and calculation of R^2 for the model.

[2] = tested on: patients after severe aneurysmal SAH (WFNS grade 3, 4 or 5)
Procedure: as §1
The patients also underwent simultaneous transcranial Doppler (TCD) monitoring. Insonation of the MCA M1 segment was performed unilaterally on the side with the best window using colour-coded duplex ultrasound (EZ-Dop, DWL; 2 Mz probe).
The patient's PETCO2, end-tidal O2, ABP and SpO2 were recorded continuously and collected on a Power-1401 data acquisition interface (Cambridge Electronic Design). […] Arterial CO2 values were collected once during the duration of the recording as part of routine clinical care.
Waveform analysis was performed using custom written MATLAB code, enabling calculation of average pre and during infusion values for TCD middle cerebral artery velocity (MCAV) ABP, PETCO2, end-tidal O2 and ICP.

## O=NO [sodium nitrite]
[1]; good outcome group
  percentage change in ADR, median: increases
  mean percentage change from baseline ADR over time, FIG. 3: increases
[1]; good outcome group, baseline median 0.03
  ADR during infusion, median: 0.05
[1]; patients with good outcome
  delta power response to a 1-hour infusion (discussion): significant increase
[1]; poor outcome group
  percentage change in ADR, median: no significant differences
  mean percentage change from baseline ADR over time, FIG. 3: does not change
[1]; poor outcome patients (mRS >=3)
  baseline versus during infusion ADR: no significant differences
[2]; 14 patients, from a mean MAP of 87 mmHg, p=0.026
  mean MAP in response to sodium nitrite: 84 mmHg
[2]; pre versus during infusion
  change in TCD, MCAV as a result of sodium nitrite infusion: no significant changes
[2]; pre versus during infusion, 10 patients
  change in ICP as a result of sodium nitrite infusion: no significant changes
[2]; pre versus during infusion, 13 patients
  change in end tidal CO2 as a result of sodium nitrite infusion: no significant changes
